Assay results taken from patent publication US20190201377A1, “METHODS AND COMPOSITIONS FOR TREATMENT OF LIPID STORAGE DISORDERS” (Neurotrope BioScience, Inc., priority 2014, published 2019).

Key:
M12 NPC1 CHO cells [1] = assay: Cholesterol storage by filipin staining in NPC1 CHO (M12) cells; format: cell-based, Chinese hamster; details: for filipin fluorescence, % of levels in untreated cells: oleic/linoleic acids for 48 hours, M12 CHO cells
Method: The human wild-type fibroblast (GM05387), NPC1o fibroblast (GM09341), and NPC1 fibroblast (GM03123) cell lines were obtained from Coriell Cell Repositories (Camden, N.J.). The M12 Chinese hamster ovary (CHO) cell line and its wild-type parental line were obtained and cultured. Fibroblast cell lines were cultured in DMEM, and CHO cells were cultured in DMEM/F12 (50:50) medium, supplemented with 10% FBS, 2 mM L-glutamine, and 50 μg/ml gentamicin in a humidified incubator at 37° C. with 5% CO2. For filipin staining in transfected cells, cells were transfected with PKC or Rab9 using Fugene 6 according to the manufacturer's recommendations. After 48 hrs, cells were stained with filipin as we have previously described [3 7]. Cells were mounted onto slides using Fluoromount-G (Southern Biotech, Birmingham, Ala.) and analyzed on a Nikon Eclipse microscope fitted with a charge-coupled-device camera (Nikon, Melville, N.Y.). Images were acquired with MetaVue software and then deconvoluted using AutoDeblur software from AutoQuant Imaging, Inc (Troy, N.Y.). For quantitation of filipin fluorescence, cells were seeded at 3×10^5 cells/well in 6-well dishes and allowed to settle overnight, after which the medium was replaced with medium containing 10% lipoprotein deficient serum (LPDS) for 4 days. Cells were incubated with oleic/linoleic acids for 48 hours, […] for 24 hrs, or diazoxide for 72 hrs before fixing and staining with filipin as we have previously described. Images were acquired using the same exposure time for all samples. Fluorescence intensity was determined using the integrated intensity function of MetaVue software; at least 150 cells were quantitated for each sample and each experiment was repeated 3 times. For analysis of sphingolipid transport, cells were incubated with oleic/linoleic acids, DCP-LA, or PMA for 48 hours before BODIPY-LacCer staining was performed as previously described.

human NPC1 3123 cells [2] = assay: Sphingolipid transport by BODIPY-LacCer staining; format: cell-based; details: 48 hours
Description: For filipin staining in transfected cells, cells were transfected with PKC or Rab9 using Fugene 6 according to the manufacturer's recommendations. After 48 hrs, cells were stained with filipin as we have previously described [3 7]. Cells were mounted onto slides using Fluoromount-G (Southern Biotech, Birmingham, Ala.) and analyzed on a Nikon Eclipse microscope fitted with a charge-coupled-device camera (Nikon, Melville, N.Y.). Images were acquired with MetaVue software and then deconvoluted using AutoDeblur software from AutoQuant Imaging, Inc (Troy, N.Y.). For quantitation of filipin fluorescence, cells were seeded at 3×10^5 cells/well in 6-well dishes and allowed to settle overnight, after which the medium was replaced with medium containing 10% lipoprotein deficient serum (LPDS) for 4 days. Cells were incubated with oleic/linoleic acids for 48 hours, DCPLA/DHA for 24 hrs, or diazoxide for 72 hrs before fixing and staining with filipin as we have previously described. Images were acquired using the same exposure time for all samples. Fluorescence intensity was determined using the integrated intensity function of MetaVue software; at least 150 cells were quantitated for each sample and each experiment was repeated 3 times. For analysis of sphingolipid transport, cells were incubated with oleic/linoleic acids, DCP-LA, or PMA for 48 hours before BODIPY-LacCer staining was performed as previously described.
To further confirm the positive effects of DCP-LA and fatty acids on the NPC1 phenotype, human NPC1 cells were treated with DCP-LA, fatty acids, or PMA to activate PKCs. […] Following absorption to the plasma membrane, the LacCer sphingolipid enters normal cells via endocytosis and eventually reaches the trans-Golgi network (TGN; [30]). […] Human NPC1 cells treated as indicated in FIG. 7 show a dramatic improvement in lipid transport with the BODIPY-LacCer effectively reaching the TGN (FIG. 7; arrows) compared to untreated cells that show only punctate, endosomal fluorescence (FIG. 7A).

NPC3-SV cells [3] = assay: Stored cholesterol by filipin staining in NPC3-SV cells; format: cell-based, Human; details: for clearance of cholesterol from NPC1 cells: 48 h, FIG. 8, different drug concentrations; for stored cholesterol levels: 72 h, FIG. 9
Method: (§1) Cells are plated in 6-well dishes and treated with the appropriate compound (dissolved in DMSO) at the indicated dose daily for 48 hrs. Control cells receive DMSO. After 48 hrs cells are transferred to cover slips with fresh compound and grown for another 24 hrs. Cover slips are collected and processed for microscopy.
(§2) For detection of unesterified cholesterol in lysosomes, cells were fixed in formalin for 30 min at 4° C., washed 2×, 5 min in 0.9% NaCl, incubated for 45 min with 0.01% filipin in PBS at room temperature, and then washed 2×, 5 min. Fluorescence was observed using a Nikon Eclipse fluorescence microscope (Nikon, Melville, N.Y.) equipped with a CCD camera. Fluorescence signals were quantified using Nikon's imaging and quantitation software package NIS Elements, v.3.22.

NPC3-SV cells [4] = format: cell-based, Human
NPC3SV cells = format: cell-based, Human
human NPC24-SV cells [5] = assay: Cholesterol accumulation by filipin staining in NPC24-SV cells; format: cell-based; details: for effect in cholesterol assay: NPC24-SV cells, FIG. 13
Method: as §1, §2

NPC cells = details: PMA treatment of NPC cells, earlier study [5]; cited from earlier work
human NPC24-SV cells [6] = assay: Glycosphingolipid accumulation by VTB staining in NPC24-SV cells; format: cell-based
C57 NPC1 mice = assay: Treatment of C57 NPC1 mice, life span; format: in vivo, mouse
Method: A total of […] C57B16 NPC1 mice, mixed sex, were used. These mice were separated into […], Groups 1-5.
Bryostatin 1 (purity ≥:95%) from Aphios (Woburn, Mass.), 1 vial 2 mg, was solubilized in a 5% DMSO, 20% Solutol and 75% Saline solution and used as the study drug. The negative (vehicle) control is a 5% DMSO, 20% Solutol and 75% Saline solution. DCP-LA from Sigma-Aldrich: 5 mg oil/vial was used as an additional in vitro active compound. Bryostatin 1 (API) was stored at or below −20° C. and formulated as needed. The formulated bryostatin 1 was stored at 2° to 8° C. for less than 24 hour(s). The DCP-LA and the vehicle controls were stored at 2°-8° C.
The stock solution of bryostatin 1 is 1 Omg/ml in DMSO, which is kept at −80° C. in aliquots. The dosing formulation is made by diluting the stock first in DMSO, then adding solutol, and lastly saline-with more insoluble compounds, adding the drug stock to complete vehicle will cause the compound to come out of solution, so we make formulations stepwise. The dosing volume is always 100 μl. Mice weigh approximately 20 g.
The mice are dosed twice weekly (Mon and Thu) starting at 30 days for up to 150 days.
C57 NPC1 mice have an average life span of ˜110 days. By Day 70 mice reach an average weight of 18-22 grams. Untreated NPC1 mice develop ataxia and will begin to lose weight at ˜70 days (see FIG. 17). Ataxia (or lack of voluntary muscle control) is a clinical feature of NPC1 mice, which may be described as shaking. Treatment will be initiated at ˜30 days of age, average NPC mouse weight of 10 g. If the drug is efficacious injections will continue past day 70-80. An extension of life of about 20-30% will mean that animals will need to be treated up to day 130-150.

human NPC1 3123 cells [7] = assay: Cholesterol storage by filipin staining in human NPC1 3123 fibroblasts; format: cell-based; details: oleic/linoleic acids for 48 hours
Method: The human wild-type fibroblast (GM05387), NPC1o fibroblast (GM09341), and NPC1 fibroblast (GM03123) cell lines were obtained from Coriell Cell Repositories (Camden, N.J.). The M12 Chinese hamster ovary (CHO) cell line and its wild-type parental line were obtained and cultured. Fibroblast cell lines were cultured in DMEM, and CHO cells were cultured in DMEM/F12 (50:50) medium, supplemented with 10% FBS, 2 mM L-glutamine, and 50 μg/ml gentamicin in a humidified incubator at 37° C. with 5% CO2. For filipin staining in transfected cells, cells were transfected with PKC or Rab9 using Fugene 6 according to the manufacturer's recommendations. After 48 hrs, cells were stained with filipin as we have previously described [3 7]. Cells were mounted onto slides using Fluoromount-G (Southern Biotech, Birmingham, Ala.) and analyzed on a Nikon Eclipse microscope fitted with a charge-coupled-device camera (Nikon, Melville, N.Y.). […] For quantitation of filipin fluorescence, cells were seeded at 3×10^5 cells/well in 6-well dishes and allowed to settle overnight, after which the medium was replaced with medium containing 10% lipoprotein deficient serum (LPDS) for 4 days. […] Fluorescence intensity was determined using the integrated intensity function of MetaVue software; at least 150 cells were quantitated for each sample and each experiment was repeated 3 times. […]

M12 NPC1 CHO cells [8] = assay: Cholesterol esterification assay in M12 NPC1 CHO cells; format: cell-based, Chinese hamster; details: for esterification levels over untreated cells: 50 μg/ml fatty acid for 2 days followed by expression of PKC ε
Method: The preparation of [3H] oleate substrate and esterification assays were performed as previously described. Cells were treated with 50 μg/ml fatty acid for 2 days and then transfected with […] or PKCε for 24 hrs before esterification assays. All values were generated in triplicate and normalized for total cell protein.

CCCCCC1CC1CC1CC1CCCCCCCC(=O)O (stereo not shown) [DCP-LA, 8-[2-(2-pentylcyclopropylmethyl)-cyclopropyl]-octanoic acid]
reduction of cholesterol storage (filipin intensity) (M12 NPC1 CHO cells [1]; 100 μM DCP-LA, 24 hrs (overnight)): ~50% | BODIPY-LacCer transport to the trans-Golgi network (human NPC1 3123 cells [2]; 20 μM DCP-LA): the lipid can be seen in the TGN | clearance of cholesterol from NPC1 cells (NPC3-SV cells [3]): able to induce clearance of cholesterol | stored cholesterol levels (NPC3-SV cells [3]): decrease stored cholesterol levels | stored glycosphingolipid levels (VTB) (NPC3-SV cells [4]): decrease stored glycosphingolipid levels | ganglioside transport block (CTB) (NPC3SV cells; DCPLA, concentration not given, NPC3SV cells, FIG. 12): release the ganglioside transport block | filipin accumulation (human NPC24-SV cells [5]; DCPLA, concentration not given, NPC24-SV cell line, FIG. 11): decrease filipin accumulation

CC/C=C\C/C=C\C/C=C\C/C=C\C/C=C\C/C=C\CCC(=O)O [DHA, docosahexanoic acid]
reduction of cholesterol storage (filipin intensity) (M12 NPC1 CHO cells [1]; 10 μM DHA, 24 hrs (overnight)): ~50%

CCCCCCCCCCCCCC(=O)O[C@@H]1[C@@H](C)[C@@]2(O)[C@@H](C=C(CO)C[C@]3(O)C(=O)C(C)=C[C@@H]23)[C@@H]2C(C)(C)[C@]12OC(C)=O [PMA, phorbol-12-myristate-13-acetate]
BODIPY-LacCer transport to the trans-Golgi network (human NPC1 3123 cells [2]; 100 nM PMA): the lipid can be seen in the TGN | NPC lipid storage phenotype (NPC cells): ameliorated the NPC lipid storage phenotype

CCC/C=C/C=C/C(=O)O[C@H]1/C(=C/C(=O)OC)C[C@H]2C[C@H]([C@@H](C)O)OC(=O)C[C@H](O)C[C@@H]3C[C@H](OC(C)=O)C(C)(C)[C@](O)(C[C@@H]4C/C(=C/C(=O)OC)C[C@H](/C=C/C(C)(C)[C@]1(O)O2)O4)O3 [bryostatin 1]
clearance of cholesterol from NPC1 cells (NPC3-SV cells [3]): able to induce clearance of cholesterol | stored cholesterol levels (NPC3-SV cells [3]): most active compound showing activity in the nanomolar concentration range | glycosphingolipid accumulation (VTB) (NPC3-SV cells [4]): statistically significant effectiveness in decreasing the glycosphingolipid accumulation | clearance of endosome-trapped cholera toxin (CTB) (NPC3SV cells): able to clear the endosome-trapped cholera toxin (CTB) | effect in cholesterol assay (human NPC24-SV cells [5]; 0.1 nM): no effect | effect in cholesterol assay (human NPC24-SV cells [5]; 1 nM, increases with increasing concentration): statistically significant | cholesterol clearance (human NPC24-SV cells [5]; 10 nM bryostatin 1, NPC24-SV cell line, FIG. 11): able to effect cholesterol 2 clearance | concentration showing a positive therapeutic effect for human NPC1 disease cells (human NPC24-SV cells [5]; summary of the cholesterol and glycosphingolipid assays of Example 2): 10 to 100 nM | effect in sphingolipid assay (human NPC24-SV cells [6]; 0.1 nM, FIG. 14): no effect | effect in sphingolipid assay (human NPC24-SV cells [6]; 1 nM, FIG. 14, increases with increasing concentration): statistically significant | age that mice lived past (C57 NPC1 mice; 10 μg/kg IP twice weekly starting at 30 days): > 100 days | age that mice lived past (C57 NPC1 mice; 20 μg/kg IP twice weekly starting at 30 days): > 100 days | age that mice lived past (C57 NPC1 mice; 30 μg/kg IP twice weekly starting at 30 days): > 100 days

CC1=NS(=O)(=O)c2cc(Cl)ccc2N1 [diazoxide]
reduction of cholesterol storage (filipin intensity) (M12 NPC1 CHO cells [1]; 100 μM diazoxide, 72 hrs): ~50% | clearance of cholesterol from NPC1 cells (NPC3-SV cells [3]): able to induce clearance of cholesterol

CCCCC/C=C\C/C=C\CCCCCCCC(=O)O [linoleic acid]
filipin fluorescence, % of levels in untreated cells (M12 NPC1 CHO cells [1]): ~75% | filipin fluorescence, % of levels in untreated cells (human NPC1 3123 cells [7]): ~75% | increase of cholesterol esterification compared to untreated M12 cells (M12 NPC1 CHO cells [8]; 50 μg/ml fatty acid for 2 days): greater than 2 fold | esterification levels over untreated cells (M12 NPC1 CHO cells [8]): ~3.5 fold | BODIPY-LacCer transport to the trans-Golgi network (human NPC1 3123 cells [2]; 2 μg/ml linoleic acid): the lipid can be seen in the TGN

CCCCCCCC/C=C\CCCCCCCC(=O)O [oleic acid, cis-9-octadecenoic acid]
filipin fluorescence, % of levels in untreated cells (M12 NPC1 CHO cells [1]): ~75% | filipin fluorescence, % of levels in untreated cells (human NPC1 3123 cells [7]): ~75% | esterification levels over untreated cells (M12 NPC1 CHO cells [8]): ~3.5 fold | BODIPY-LacCer transport to the trans-Golgi network (human NPC1 3123 cells [2]; 2 μg/ml oleic acid): the lipid can be seen in the TGN
